Assay results: patent publication US11464854B2, “Methods and compositions relating to adjuvants” (Children's Medical Center Corporation, priority 2017, dated 2022)

What was measured:
human TLR8 [1] = target: T1, human TLR8 (Homo sapiens, UniProt Q9NR97); test: HEK293 NF-kB SEAP reporter assay, human TLR8; format: cell-based
T1 construct: host or cells: HEK293 with NF-kB-responsive SEAP reporter
T1 sequence (Q9NR97 27-1041): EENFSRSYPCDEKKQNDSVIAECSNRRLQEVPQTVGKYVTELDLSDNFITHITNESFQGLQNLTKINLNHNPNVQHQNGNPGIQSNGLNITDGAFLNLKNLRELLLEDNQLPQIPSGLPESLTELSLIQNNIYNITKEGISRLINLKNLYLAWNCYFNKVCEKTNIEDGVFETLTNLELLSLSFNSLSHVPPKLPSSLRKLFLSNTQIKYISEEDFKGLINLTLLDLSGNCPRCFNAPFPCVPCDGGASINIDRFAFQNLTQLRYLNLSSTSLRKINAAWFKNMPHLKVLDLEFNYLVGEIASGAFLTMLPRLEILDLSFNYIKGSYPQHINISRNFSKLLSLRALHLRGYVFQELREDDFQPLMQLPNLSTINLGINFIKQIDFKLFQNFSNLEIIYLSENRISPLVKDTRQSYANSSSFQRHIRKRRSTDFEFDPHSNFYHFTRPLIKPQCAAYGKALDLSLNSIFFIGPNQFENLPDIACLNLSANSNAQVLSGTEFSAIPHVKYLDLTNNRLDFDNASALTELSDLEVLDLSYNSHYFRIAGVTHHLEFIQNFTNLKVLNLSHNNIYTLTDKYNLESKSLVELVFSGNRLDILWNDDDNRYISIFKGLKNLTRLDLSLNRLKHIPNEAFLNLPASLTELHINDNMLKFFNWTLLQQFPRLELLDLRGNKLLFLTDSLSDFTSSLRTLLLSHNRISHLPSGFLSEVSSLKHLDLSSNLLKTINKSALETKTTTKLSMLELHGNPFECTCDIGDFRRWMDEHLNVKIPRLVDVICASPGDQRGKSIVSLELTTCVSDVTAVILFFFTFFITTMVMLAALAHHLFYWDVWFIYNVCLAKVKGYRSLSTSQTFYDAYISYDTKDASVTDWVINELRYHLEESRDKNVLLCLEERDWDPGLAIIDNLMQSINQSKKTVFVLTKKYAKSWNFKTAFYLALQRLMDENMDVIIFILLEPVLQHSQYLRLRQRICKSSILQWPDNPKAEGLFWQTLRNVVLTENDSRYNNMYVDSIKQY
Description: Human embryonic kidney (HEK)293 cells expressing human TLR7 or TLR8 with an NF-κB-responsive secreted embryonic alkaline phosphatase (SEAP) reporter gene were obtained from Novus Biologicals (Littleton, Colo.) and Invivogen (San Diego, Calif.), respectively. Cells were maintained in DMEM with 10% HI-FBS and selection antibiotics per the manufacturer's instructions. Cells were plated at 5×10^5 cells/96-well and stimulated with indicated agonist(s) for 24 h. Supernatants were harvested and analyzed for NF-κB/SEAP activation using the QuantiBlue™ kit (Invivogen). Values are expressed as fold change in OD650 over vehicle-only treated samples.

[2] = test system: newborn cord blood mononuclear cells (CBMCs); test: Human newborn Th1 polarization assay; format: cell-based; conditions: 10 μM, with αCD3, 96 hrs
Description: Newborn cord blood mononuclear cells (CBMCs), a mixed mononuclear cell culture which is a largely naïve newborn T cell population, were stimulated with the TLR7/8 agonists in the presence of the polyclonal T cell activator αCD3 for 96 hours. T cell polarization was evaluated by IFNγ levels measured in cell-free supernatants by ELISA.

PnPS-specific B cells = test: Pneumococcal polysaccharide-specific B cells (ELISpot); format: in vivo, rhesus macaques (Macaca mulatta); conditions: control condition, adjuvant alone
Description: Characterization of pneumococcal polysaccharide-specific B cells. Rhesus macaque peripheral blood mononuclear cells (PBMCs) were labeled with anti-CD14-PE (clone M5E2), CD20-V450 (clone L27), CD27-PE.Cy7 (clone M-T271), CD4-FITC (clone SK3) Ab's (BD Biosciences). Sorting of CD14+ monocytes, CD20+CD27− naïve B cells, CD20+CD27+ memory B cells, and CD4+Th cells employed a FACSAria™ II cell sorter. Anti-pneumococcal B cells in peripheral blood were enumerated in sorted B cell populations. […] Secreted immunoglobulins were detected using horseradish peroxidase-conjugated goat-anti-rhesus immunoglobulin (Nordic Immunological Laboratories; Eindhoven, The Netherlands). Spots were developed using 3,3′,5,5′-Tetramethylbenzidine (TMB) (Mabtech, Mariemont; OH, USA) and visualized and counted using a series 5 ELISpot™ analyzer (Cellular Technology Limited, Shaker Heights; OH, USA). The fraction of pneumococcal polysaccharide-specific B cells was quantified as the ratio of the spots detected in polysaccharide-coated wells to spots detected in immunoglobulin-coated wells, after correction for dilution.

[3] = rats
human TLR8 [4] = target: T1, human TLR8; conditions: HEK293 cells stably expressing human TLR8 (ref. 24); cited from earlier work

Compound | TLR7 vs. TLR8 selectivity (human TLR8 [1]; HEK293 assay) | potency for hTLR8 (human TLR8 [1]; among six IMQ and OA compounds, SEAP fold change) | IFNγ production by newborn T cells [2] | non-specific polysaccharide in vitro activation of B cells (PnPS-specific B cells) | 3M-052 in serum ([3]; 0.1 mg/kg, up to 24 hours post-dose) | serum 3M-052 peak ([3]; 1 mg/kg, 4 hour peak) | agonist activity, human TLR8 (human TLR8 [4])
CCCCc1nc2c(N)nc3ccccc3c2n1CCO [CRX-649] | preference for TLR8 | greatest potency | significantly enhanced ability to induce IFNγ production |  |  |  | 
CCCCCCCCCCCCCCCCCC(=O)NCCCCOn1c(CCCC)nc2c(N)nc3ccccc3c21 [3M-052, N-[4-[(4-amino-2-butyl-1H-imidazo[4,5-c]quinolin-1-yl)oxy]butyl]octadecanamide] |  |  |  | ≤ 1.0% | not detectable | ~50 pmol/mL | Dual agonist activity
